Where two headings read alike, the source gives them in different places.
Experiments:
[1] = tested on: Tunica Mucosa Ventriculi of rat (stomach); assay: Inducing Activities on Injury at Tunica Mucosa of Rat (stomach); assay type: in vivo, rat (LEW/Crj); details: oral, 6 hours
Method: Inducing Activities on Injury at Tunica Mucosa of Rat
Sixs LEW/Crj male rats (six week old, 140-160 g weight) were used per one group. A drug was orally administered to each rat fasted for 24 hours, then six hours later each rat were bled to death under anesthesia of ether. From each rat was taken out the stomach, in which about 6 ml of physiological saline was filled, then the stomach was steeped in 1% formalin solution for 15 min. The stomach was incised along with curvatura ventriculi major and observed with an actual-microscope to see the injured condition thereof, then the number of rats injuried at stomach and the length of hemorrhage macula were determined. The degree of the injury was shown as Lesion index (mm) which was the cumulative value of the length of hemorrhage macula in each administered group.

[2] = tested on: PGE2 production from rat synovia cells (Rat SVC); assay: Inhibitory Activity on PGE2 Production from Rat Synovia Cells; assay type: cell-based, rat (LEW/Crj); details: human IL-1 β 30 U/ml, 15 hours, RIA
Method: Inhibitory Activity on PGE2 Production from Rat Synovia Cells
LEW/Crj rats (male, 300-350 g weight) were subjected to synovectomy. The isolated synovia cells were subcultivated under a certain condition up to a well amount of cells for the experiment. The cells were dispensed to each well of a 96-well microtiter plate at a concentration of 4×10^3 /160 μl/well and then cultivated for 72 hours in a CO2 incubator. Serial dilutions (20 μl each) of a test compound and human IL-1 β(final concentration: 30 U/ml) were added to the wells and incubated for 15 hours in a Co2 incubator. After the incubation, the supernatant was collected from each well and stored at -80° C. until PGE2 assay. […]

[3] = tested on: Carrageenin-Induced Paw Edema of Rat; assay: Inhibitory Activity on Carrageenin-Induced Paw-Edema of Rat; assay type: in vivo, rat (LEW/Crj); details: oral 1 hour before carrageenin, inhibitory rate 3 or 4 hours after carrageenin, read-out: ED30 Inhibitory Activities to Carrageenin-Induced Paw Edema of Rat
Method: Inhibitory Activity on Carrageenin-Induced Paw-Edema of Rat
Namely, male LEW/Crj rats (6-week-old, 140-170 g weight) fasted for 24 hours were used (7 to 8 rats per group).
A solution (0.1 ml) containing 1% λ-carrageenin (PICININ-A, Zushikagaku) was injected into the subplantar tissue of the right hind paw of each rat orally administered a test compound before 1 hour, to induce edema. The paw volume was calculated plethysmographically before and after the injection at an interval of 1 hour until 5 hours later. The inhibitory rate of the drug-administered group was calculated, with the vehicle group as the reference, to determine the efficacy of the test compounds by Dunnett-t assay. The anti-edema activity was indicated as ED30 calculated, by regression analysis method, based on the inhibitory rate shown 3 or 4 hours later after the administration of carrageenin.

[4] = tested on: IL-1 production in THP-1 cells; assay: Inhibitory Activity on IL-1 Production caused by The Stimulation of LPS in THP-1 Cells; assay type: cell-based; details: Homo sapiens, read-out: IC50 THP-1 IL-1
Method: Serial dilutions (100 μl each) of a test compound and LPS (final concentration: 10 μg/ml) were further added to each well and the plate was kept at 37° C. for 24 hours. Then, the supernatant was collected from each well and centrifuged (3000 rpm×10 min.). […]

[5] = tested on: LTB4 production from rat peritoneal cells (Rat PEC); assay: Inhibitory Activity on LTB4 Production from Rat Peritoneal Cells; assay type: cell-based, rat (Jcl-SD); details: 0.25 h, Ca-ionophore A23187 1 μM, 15 min, RIA
Method: Inhibitory Activity on LTB4 Production from Rat Peritoneal Cells
To each male Jcl-SD rat (300-350 g weight) was intraperitoneally administered 10 ml of Hanks' solution containing 0.1% bovine serum albumin (hereinafter referred to as BSA) and 25 U/ml of heparin. Then the ascites were collected and centrifuged (1500 rpm×5 min., at 4° C.). The resulting cell fraction (precipitation) was suspended and adjusted at […] with Hanks' solution containing 0.1% BSA. The thus obtained suspension (800 μl, 8×10^5 cells) was dispensed into polypropylene tubes and incubated at 37° C. 10 min, and successively for 10 min. after addition of serial dilutions (100 μl each) of a test sample. Next, 100 μl of Ca-ionophore A23187 (final concentration: 1 μM) was added to the resulting suspension and allowed to stand for 15 min, then the mixture was ice-cooled to terminate the reaction. The reaction mixtures were centrifuged (3000 rpm×5 min., at 4° C.) to give supernatants, which were collected and stored at -80° C. until LTB4 assay. After thawed, the LTB4 assay was performed by RIA using ^3 H--LTB4.

[6] = THP-1 cells, LPS 10 μg/ml, 24 hours, RIA of IL-1 β

Compound	Injury at Tunica Mucosa Ventriculi, Degree of Injury (Lesion index) ([1]; 10 mg/kg) [mm]	Injury at Tunica Mucosa Ventriculi, Number Occurrence/Sample ([1]; 10 mg/kg)	Injury at Tunica Mucosa Ventriculi, Degree of Injury (Lesion index) ([1]; 100 mg/kg) [mm]	Injury at Tunica Mucosa Ventriculi, Number Occurrence/Sample ([1]; 100 mg/kg)	Injury at Tunica Mucosa Ventriculi, Degree of Injury (Lesion index) ([1]; 200 mg/kg) [mm]	Injury at Tunica Mucosa Ventriculi, Number Occurrence/Sample ([1]; 200 mg/kg)	IC50 [2] [nM]	ED30 [3] [mg/kg]	IC50 [4, 6] [nM]	IC50 [5] [nM]	Injury at Tunica Mucosa Ventriculi, Degree of Injury (Lesion index) ([1]; 400 mg/kg) [mm]	Injury at Tunica Mucosa Ventriculi, Number Occurrence/Sample ([1]; 400 mg/kg)	Injury at Tunica Mucosa Ventriculi, Degree of Injury (Lesion index) ([1]; 30 mg/kg) [mm]	Injury at Tunica Mucosa Ventriculi, Number Occurrence/Sample ([1]; 30 mg/kg)	Injury at Tunica Mucosa Ventriculi, Degree of Injury (Lesion index) ([1]; 3 mg/kg) [mm]	Injury at Tunica Mucosa Ventriculi, Number Occurrence/Sample ([1]; 3 mg/kg)	IC50 ([4]; THP-1, 24 h) [nM]
CC(C)(C)c1cc(C=C2CCN(C(N)=O)C2=O)cc(C(C)(C)C)c1O [Ia-1, N-carbamoyl-3-(3,5-di-tert-butyl-4-hydroxybenzylidene)pyrrolidin-2-one]	0 ± 0	0/6	0 ± 0	0/6	0 ± 0	0/6	400	18	20000	4000	–	–	–	–	–	–	–
CC(C)(C)c1cc(C=C2CCN(C(=O)NO)C2=O)cc(C(C)(C)C)c1O [Ia-4, N-(N-hydroxycarbamoyl)-3-(3,5-di-tert-butyl-4-hydroxybenzylidene)pyrrolidin-2-one]	–	–	0 ± 0	0/8	0 ± 0	0/8	200	16	25000	3000	0.2 ± 0.1	3/8	–	–	–	–	–
CN(O)C(=O)N1CCC(=Cc2cc(C(C)(C)C)c(O)c(C(C)(C)C)c2)C1=O [Ia-6, N-(N-hydroxy-N-methylcarbamoyl)-3-(3,5-di-tert-butyl-4-hydroxybenzylidene)pyrrolidin-2-one]	0 ± 0	0/6	1.0 ± 0.5	3/6	–	–	9	9	34000	3000	–	–	0.6 ± 0.5	3/6	–	–	–
CON1CCC(=Cc2cc(C(C)(C)C)c(O)c(C(C)(C)C)c2)C1=O [Reference Compound, N-methoxy-3-(3,5-di-tert-butyl-4-hydroxybenzylidene)-2-pyrrolidone, reference compound]	7.2 ± 1.2	6/6	–	–	–	–	5	3	–	6000	–	–	11.2 ± 2.2	6/6	4.5 ± 1.3	6/6	> 100000
